Experiments:
FXR [1] = biological target: T1, FXR (Homo sapiens (Human), UniProt Q96RI1); experiment: transient human FXR/Gal4-luciferase reporter assay; assay type: cell-based; conditions: Gal4-hFXR LBD fusion in HEK293 reporter cells; relative to 8 μM GW-4064
Protocol: The exemplified compounds of the present invention were tested in the transient human FXR/Gal4-luciferase reporter assay, and assay results were described in the EXAMPLES section hereinbefore.
A Gal4-hFXR fusion construct reporter system was used as the primary assay to characterize compound activity. A construct including 5 copies of the Gal4 promoter response element upstream of a firefly luciferase reporter cDNA was stably expressed in HEK293 cells. This reporter cell line was maintained in Dulbecco's Modified Eagle's medium (DMEM; Gibco) supplemented with 1% penicillin-streptomycin (P/S) solution, 500 μg/ml Zeocin and 10% charcoal/dextran-treated fetal bovine serum (cs-FBS) at 37° C. in a humidified 5% CO2 atmosphere. Another plasmid was constructed in which the human cytomegalovirus promoter in the pcDNA3.1 vector directs the expression of the cDNA encoding a fusion protein comprised of the DNA binding domain from the Gal4 transcription factor fused to the ligand binding domain from human FXR.
The day prior to transfection, the reporter cells in culture are detached from the plate with trypsin and plated into a T75 flask at a sufficient density to achieve approximately 90% confluence the next morning. The transfection reagents are prepared by separately diluting 25 μg of the pcDNA3.1-Gal4-FXR plasmid into 1.87 mL of Opti-MEM (Thermo-Fisher), and 40 μL of Lipofectamine 2000 (Thermo-Fisher) into 1.87 mL of Opti-MEM, and then adding the diluted DNA solution into the diluted Lipofectamine 2000 solution and incubating at room temperature for 15-20 minutes. The mixture is further diluted with 10 mL of a solution comprised of DMEM, 10% cs-FBS, and 1% P/S immediately prior to transferring to the cells. The maintenance culture media is aspirated from the cells and the final transfection mixture is added before the cells are incubated overnight at 37° C. in a humidified 5% CO2 atmosphere. This protocol can be scaled up, and the transiently transfected cells can be cryopreserved in an assay-ready format.
For compound testing, 100 nL of the compounds (serial dilutions in DMSO) are dispensed with an Echo acoustic dispenser (Labcyte) into the wells of a Corning/Costar clear bottom 384-well white plate. The transfected cells are harvested, counted, and diluted such that 10-25,000 cells in 25 μL are plated into each well of the 384-well compound assay plate. The compound-treated cells are incubated overnight at 37° C. in a humidified 5% CO2 atmosphere. The next morning 25 μL of Steady-Glo (Promega) are added to each well of the plate, the mixture is incubated for 15 min. with shaking, and luminescence is measured on an Envision (Perkin Elmer) plate reader. Background counts from cells treated with DMSO alone are subtracted from all raw counts, and the corrected values are converted to a percentage of the control response attained with 8 μM GW-4064.

FXR [2] = biological target: T1, FXR; experiment: FXR EC50 (FXR agonist activity reported with each example); assay type: cell-based

T1 sequence (Q96RI1 262-486): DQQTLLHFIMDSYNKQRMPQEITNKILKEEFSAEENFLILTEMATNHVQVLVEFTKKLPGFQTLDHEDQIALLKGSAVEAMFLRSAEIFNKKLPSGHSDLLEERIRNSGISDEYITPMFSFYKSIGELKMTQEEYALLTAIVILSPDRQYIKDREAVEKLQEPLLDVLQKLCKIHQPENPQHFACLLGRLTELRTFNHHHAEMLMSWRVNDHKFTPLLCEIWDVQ

| SMILES | EC50 (FXR [1]) | EC50 (FXR [2]) |
| --- | --- | --- |
| O=C(O)c1cc2ccc(/C=C/C34CCC(OCc5c(-c6c(Cl)cncc6Cl)noc5C5CC5)(CC3)CC4)cc2c(N2CC(O)C2)n1 [Example 610] | 77 nM |  |
| Cn1nc(C(=O)O)cc1OCC12CCC(OCc3c(-c4c(Cl)cncc4Cl)noc3C3CC3)(CC1)CC2 [Example 526] | 296 nM |  |
| O=C(O)c1cc2ccc(C#CC34CCC(OCc5c(-c6c(Cl)cncc6Cl)noc5C5CC5)(CC3)CC4)cc2c(N2CCC(O)CC2)n1 [Example 558] | 20 nM |  |
| O=C(O)c1cnc2ccc(/C=C/C34CCC(OCc5c(-c6c(Cl)cncc6Cl)noc5C5CC5)(CC3)CC4)cn12 [Example 593] | 1130 nM |  |
| O=C(O)CCc1ccc(/C=C/C23CCC(OCc4c(-c5c(Cl)cncc5Cl)noc4C4CC4)(CC2)CC3)cc1F [Example 607] | 269 nM |  |
| O=C(O)c1c(F)c(OCC23CCC(OCc4c(-c5c(Cl)cncc5Cl)noc4C4CC4)(CC2)CC3)nn1CC1CC1 [Example 535] | 50 nM |  |
| CCc1cc(C(=O)O)c2ncc(C#CC34CCC(OCc5c(-c6c(Cl)cncc6Cl)noc5C5CC5)(CC3)CC4)n2c1 [Example 546] | 7 nM |  |
| O=C(O)c1cc2ccc(/C=C/C34CCC(OCc5c(-c6c(Cl)cncc6Cl)noc5C5CC5)(CC3)CC4)cc2c(OC2CCCC2)n1 [Example 615] | 52 nM |  |
| O=C(O)COc1cc(/C=C/C23CCC(OCc4c(-c5c(Cl)cncc5Cl)noc4C4CC4)(CC2)CC3)ccn1 [Example 617] | 1460 nM |  |
| O=C(O)c1cc2ccc(/C=C/C34CCC(OCc5c(-c6c(Cl)cncc6Cl)noc5C5CC5)(CC3)CC4)cc2c(N2CCOCC2)n1 [Example 603] | 18 nM |  |
| O=C(O)c1ccc(F)c(-c2noc(C34CCC(OCc5c(-c6c(Cl)cncc6Cl)noc5C5CC5)(CC3)CC4)n2)c1 [Example 461, 3-(5-(4-((5-cyclopropyl-3-(3,5-dichloropyridin-4-yl)isoxazol-4-yl)methoxy)bicyclo[2.2.2]octan-1-yl)-1,2,4-oxadiazol-3-yl)-4-fluorobenzoic acid] |  | 190 nM |
| CC(C)Oc1cc(OCC23CCC(OCc4c(-c5c(Cl)cncc5Cl)noc4C4CC4)(CC2)CC3)cc(C(=O)O)c1 [Example 326] |  | 17 nM |
| O=C(O)c1cc(OC2CC2)c2cc(OCC34CCC(OCc5c(-c6c(Cl)cncc6Cl)noc5C5CC5)(CC3)CC4)ccc2n1 [Example 331, 4-cyclopropoxy-6-((4-((5-cyclopropyl-3-(3,5-dichloropyridin-4-yl)isoxazol-4-yl)methoxy)bicyclo[2.2.2]octan-1-yl)methoxy)quinoline-2-carboxylic acid] |  | 23 nM |
| O=C(O)c1cccc2nc(C34CCC(C=Cc5c(-c6c(Cl)cccc6Cl)noc5C5CC5)(CC3)CC4)sc12 [Example 189] |  | 63 nM |
| O=C(O)c1ccc(-c2noc(C34CCC(COCc5c(-c6c(Cl)cccc6Cl)noc5C5CC5)(CC3)CO4)n2)cc1 [Example 211] |  | 980 nM |
| COc1cc(OCC23CCC(OCc4c(-c5c(Cl)cncc5Cl)noc4C4CC4)(CC2)CC3)ccc1C(=O)O [Example 358] |  | 52 nM |
| O=C(O)c1ccc2nc(C34CCC(/C=C/c5c(-c6ccccc6OC(F)(F)F)noc5C5CC5)(CC3)CC4)sc2c1 [Example 182, (E)-2-(4-(2-(5-cyclopropyl-3-(2-(trifluoromethoxy)phenyl)isoxazol-4-yl)vinyl)bicyclo[2.2.2]octan-1-yl)benzo[d]thiazole-6-carboxylic acid] |  | 100 nM |
| O=C(O)c1cc(-c2noc(C34CCC(OCc5c(-c6c(Cl)cncc6Cl)noc5C5CC5)(CC3)CC4)n2)cc(OC2CCC2)n1 [Example 261, 6-cyclobutoxy-4-(5-(4-((5-cyclopropyl-3-(3,5-dichloropyridin-4-yl)isoxazol-4-yl)methoxy)bicyclo[2.2.2]octan-1-yl)-1,2,4-oxadiazol-3-yl)picolinic acid] |  | 36 nM |

| SMILES | EC50 (FXR [1]) | EC50 (FXR [2]) |
| --- | --- | --- |
| COc1cc(C#CC23CCC(OCc4c(-c5c(Cl)cncc5Cl)noc4C4CC4)(CC2)CC3)cc(C(=O)O)c1 [Example 380] |  | 24 nM |
| O=C(O)c1ccc(C23CCC(/C=C/c4c(-c5c(Cl)cncc5Cl)noc4C4CC4)(CC2)CO3)cc1 [Example 457, (E)-4-(4-(2-(5-cyclopropyl-3-(3,5-dichloropyridin-4-yl)isoxazol-4-yl)vinyl)-2-oxabicyclo[2.2.2]octan-1-yl)benzoic acid] |  | 87 nM |
| COc1cc(C#CC23CCC(OCc4c(-c5c(Cl)cncc5Cl)noc4C4CC4)(CC2)CC3)nc(C(=O)O)c1 [Example 377] |  | 390 nM |
| O=C(O)c1cc(-c2noc(C34CCC(OCc5c(-c6ccccc6C(F)(F)F)noc5C5CC5)(CC3)CC4)n2)ccn1 [Example 50] |  | 2100 nM |
| O=C(O)c1ccc(F)c(OCC23CCC(OCc4c(-c5c(Cl)cncc5Cl)noc4C4CC4)(CC2)CC3)c1 [Example 98, 3-((4-((5-cyclopropyl-3-(3,5-dichloropyridin-4-yl)isoxazol-4-yl)methoxy)bicyclo[2.2.2]octan-1-yl)methoxy)-4-fluorobenzoic acid] |  | 22 nM |
| NC(=O)c1cc(C(F)(F)F)cc2nc(C34CCC(OCc5c(-c6c(Cl)cncc6Cl)noc5C5CC5)(CC3)CC4)sc12 [Example 435, 2-(4-((5-cyclopropyl-3-(3,5-dichloropyridin-4-yl)isoxazol-4-yl)methoxy)bicyclo[2.2.2]octan-1-yl)-5-(trifluoromethyl)benzo[d]thiazole-7-carboxamide] |  | 460 nM |
| O=C(O)c1cccc(OCC23CCC(OCc4c(-c5ccccc5OC(F)(F)F)noc4C4CC4)(CC2)CC3)c1 [Example 77] |  | 180 nM |
| O=C(O)c1cccc2c1CN(C(=O)C13CCC(OCc4c(-c5c(Cl)cccc5Cl)noc4C4CC4)(CC1)CC3)CC2 [Example 146, 2-(4-((5-cyclopropyl-3-(2,6-dichlorophenyl)isoxazol-4-yl)methoxy)bicyclo[2.2.2]octane-1-carbonyl)-1,2,3,4-tetrahydroisoquinoline-8-carboxylic acid] |  | 3100 nM |
| O=C(O)c1cc(C#CC23CCC(OCc4c(-c5c(Cl)cncc5Cl)noc4C4CC4)(CC2)CC3)cc2cn[nH]c12 [Example 401] |  | 74 nM |
| O=C(O)c1ccc2cc(OCC34CCC(OCc5c(-c6c(Cl)cccc6Cl)noc5C5CC5)(CC3)CC4)ccc2n1 [Example 105, 6-((4-((5-cyclopropyl-3-(2,6-dichlorophenyl)isoxazol-4-yl)methoxy)bicyclo[2.2.2]octan-1-yl)methoxy)quinoline-2-carboxylic acid] |  | 76 nM |
| O=C(O)c1cccc(-c2noc(C34CCC(COCc5c(-c6ccccc6OC(F)(F)F)noc5C5CC5)(CC3)CO4)n2)c1 [Example 213] |  | 1200 nM |
| COc1ccc(-c2nc(C34CCC(OCc5c(-c6c(Cl)cncc6Cl)noc5C5CC5)(CC3)CC4)c[nH]2)cc1C(=O)O [Example 259, 5-(4-(4-((5-cyclopropyl-3-(3,5-dichloropyridin-4-yl)isoxazol-4-yl)methoxy)bicyclo[2.2.2]octan-1-yl)-1H-imidazol-2-yl)-2-methoxybenzoic acid] |  | 5500 nM |
| O=C(O)c1cccc(-c2noc(C34CCC(OCc5c(-c6c(Cl)cccc6Cl)noc5C5CC5)(CC3)CC4)n2)n1 [Example 13, 6-(5-(4-((5-cyclopropyl-3-(2,6-dichlorophenyl)isoxazol-4-yl)methoxy)bicyclo[2.2.2]octan-1-yl)-1,2,4-oxadiazol-3-yl)picolinic acid] |  | 270 nM |
| CN1CCN(c2ccc(C(=O)O)c3ccc(C45CCC(OCc6c(-c7c(Cl)cncc7Cl)noc6C6CC6)(CC4)CC5)nc23)CC1 [Example 413] |  | 1500 nM |
| O=C(O)c1ccc(F)c(-c2noc(C34CCC(COCc5c(-c6c(Cl)cncc6Cl)noc5C5CC5)(CC3)CC4)n2)c1 [Example 486, 3-(5-(4-(((5-cyclopropyl-3-(3,5-dichloropyridin-4-yl)isoxazol-4-yl)methoxy)methyl)bicyclo[2.2.2]octan-1-yl)-1,2,4-oxadiazol-3-yl)-4-fluorobenzoic acid] |  | 2700 nM |
| COc1cc(C(=O)O)nc2ccc(C#CC34CCC(OCc5c(-c6c(Cl)cncc6Cl)noc5C5CC5)(CC3)CC4)cc12 [Example 375] |  | 57 nM |
| CC(C)c1onc(-c2ccccc2OC(F)(F)F)c1COC12CCC(c3nc(-c4ccc(C(=O)O)cc4)no3)(CC1)CC2 [Example 26] |  | 980 nM |
| O=C(O)c1cc(OCC2CC2)c2cc(OCC34CCC(OCc5c(-c6c(Cl)cncc6Cl)noc5C5CC5)(CC3)CC4)ccc2n1 [Example 346] |  | 18 nM |

Reference: patent publication US10730863B2, “Bridged bicyclic compounds as farnesoid X receptor modulators” (BRISTOL-MYERS SQUIBB COMPANY, priority 2017, dated 2020)
